Test results published in US20070218491A1, “Oligomerization of amyloid proteins” (Oligomerix, Inc., priority 2006, published 2007).
Like-named read-outs stand apart in the source and are kept apart here.

Legend:
[1] = molecular target: T1, human islet amyloid polypeptide (Homo sapiens, UniProt P10997); conditions: cited from earlier work
T1 sequence (P10997 34-70 limits assumed): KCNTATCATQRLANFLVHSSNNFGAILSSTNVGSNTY

tau = tau (Homo sapiens, UniProt P10636); test: Screening compounds for inhibition of RNA-facilitated tau oligomer formation (modified ELISA); assay type: biochemical; conditions: incubations with RQ11+12 RNA polyanion; FIG. 14
tau, sequence (P10636 1-412 isoform P10636-7): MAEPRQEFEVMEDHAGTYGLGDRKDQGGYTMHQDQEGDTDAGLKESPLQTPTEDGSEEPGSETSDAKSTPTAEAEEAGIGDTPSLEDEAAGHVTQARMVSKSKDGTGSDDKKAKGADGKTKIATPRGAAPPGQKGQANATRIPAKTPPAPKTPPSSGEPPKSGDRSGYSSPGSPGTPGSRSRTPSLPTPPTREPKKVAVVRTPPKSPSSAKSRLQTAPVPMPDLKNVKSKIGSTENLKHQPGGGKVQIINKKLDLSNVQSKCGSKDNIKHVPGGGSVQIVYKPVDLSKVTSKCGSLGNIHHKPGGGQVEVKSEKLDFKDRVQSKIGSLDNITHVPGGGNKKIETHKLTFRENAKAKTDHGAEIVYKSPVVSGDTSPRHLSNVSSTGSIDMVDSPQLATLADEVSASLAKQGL
Procedure: RNA polyanion was used to facilitate oligomer formation of tau protein in vitro using the following, preferred, conditions: 20 pmoles of tau412 was reacted with 4 pmoles of a 197 base RNA, i.e., RQ11+12, in 50 mM Tris-HCl buffer at pH of 7.4 and incubated for 1 hour at 37° C. […] The 5:1 ratio was optimal for the RNA RQT157 as well (FIG. 15). […] The kinetics of oligomer formation was rapid. […] Physiological pH and temperature were used in the assay to simulate biological conditions.
Formation of tau oligomers was analyzed using two different ELISA methods to provide verified data. The “modified” ELISA uses the same monoclonal antibody for capture and detection. Insoluble aggregates are removed in the ELISA procedure during washing steps. Only soluble aggregates of tau, not monomers, are detected with this ELISA because the detection and reporter antibody recognizes an epitope which is present only once within tau. At least one more tau molecule must be present in the complex for detection with the same antibody (method illustrated in FIG. 7). The modified ELISA used is similar to the modified ELISA previously used for identification of Aβ oligomers (Sian et al., Biochem. J. 349(Pt 1):299-308 2000)) and PrP oligomers (Vasan et al., Neurochem Res 31(5):629-37(2006)). […]

tau412 = tau412 (Homo sapiens, UniProt P10636); test: Polyanion-facilitated tau412 oligomer formation detected by ELISA (modified, A11, DC11); assay type: biochemical; conditions: for facilitation of tau412 oligomer formation by heparin or DNA: modified ELISA, FIGS. 13 and 16
tau412, sequence (P10636 1-412 isoform P10636-7): as above
Procedure: The 5:1 ratio was optimal for the RNA RQT157 as well (FIG. 15). […] The kinetics of oligomer formation was rapid. […] Physiological pH and temperature were used in the assay to simulate biological conditions. Formation of tau oligomers was analyzed using two different ELISA methods to provide verified data. The “modified” ELISA uses the same monoclonal antibody for capture and detection. Insoluble aggregates are removed in the ELISA procedure during washing steps. Only soluble aggregates of tau, not monomers, are detected with this ELISA because the detection and reporter antibody recognizes an epitope which is present only once within tau. At least one more tau molecule must be present in the complex for detection with the same antibody (method illustrated in FIG. 7). The modified ELISA used is similar to the modified ELISA previously used for identification of Aβ oligomers (Sian et al., Biochem. J. 349(Pt 1):299-308 2000)) and PrP oligomers (Vasan et al., Neurochem Res 31(5):629-37(2006)). This assay used antibody MN1000, recognizing tau epitope amino acids 159-163, for capture and biotinylated MN1000 as reporter. […] The second ELISA method to detect oligomers is based on polyclonal antibody A11 which recognizes a common structure in soluble amyloid oligomers (FIGS. 8-10, and 12). (Kayed et al., Science 300: 486-491(2003)). […] This assay was used to optimize the molar ratio of tau:RNA for oligomer formation (FIGS. 8 and 15), follow oligomer formation over time (FIG. 10), show tau oligomer formation with a range of RNAs (FIG. 12), and detect soluble tau oligomers in CSF (FIG. 11). A third ELISA was used to show biological relevance of the tau oligomers formed in this assay to tau in AD and is based on monoclonal antibodies DC11 used for capture and biotinylated MN1000 for reporter. The antibody DC11 recognizes a conformational epitope in tau specific for AD (Vechterova et al., Neuroreport 1:87-91 (2003)). […] Oligomer formation was determined by modified ELISA (described above). […]

## Cc1ccc(C(=O)Nc2ccc(S(=O)(=O)O)c3cc(S(=O)(=O)O)cc(S(=O)(=O)O)c23)cc1NC(=O)c1cccc(NC(=O)Nc2cccc(C(=O)Nc3cc(C(=O)Nc4ccc(S(=O)(=O)O)c5cc(S(=O)(=O)O)cc(S(=O)(=O)O)c45)ccc3C)c2)c1 [Suramin]
[1]; at high concentrations
  effect on amyloid fibril formation: stimulated the process
[1]; at low concentrations
  effect on amyloid fibril formation: inhibited amyloid fibril formation

## COc1cc(/C=C/C(=O)CC(=O)/C=C/c2ccc(O)c(OC)c2)ccc1O [curcumin]
tau
  inhibition of RNA-facilitated tau oligomer formation: inhibition

## Heparin
tau412
  facilitation of tau412 oligomer formation by heparin or DNA: effective in facilitating tau oligomer formation

## Polydeoxythymidine
tau412
  facilitation of tau412 oligomer formation by heparin or DNA: enhanced tau412 oligomer formation

## polyA
tau412; 5:1 tau:RNA ratio, detected with A11 Ab, FIG. 12
  facilitation of tau oligomer formation by RNA: facilitated tau oligomer formation
